In ChEMBL document CHEMBL2413047, “Identification of GNE-293, a potent and selective PI3Kδ inhibitor: navigating in vitro genotoxicity while improving potency and selectivity” (Bioorg Med Chem Lett, 2013):
In brackets after ≈: the same amount, converted by molar mass. Each block holds one compound with its values, some of them ahead of it.

What was measured:
CHO-K1 = assay: Genotoxicity in CHOK1 cells by micronucleus assay; format: toxicity, cell-based, Cricetulus griseus; details: chinese hamster
[1] = target: T1, Phosphatidylinositol 4,5-bisphosphate 3-kinase catalytic subunit delta isoform (Homo sapiens, UniProt O00329); assay: Inhibition of PI3Kdelta in human whole blood assessed as expression of CD69 in B cell preincubated for 1 hr by flow cytometry; format: tissue-based
T1 sequence (O00329 whole entry): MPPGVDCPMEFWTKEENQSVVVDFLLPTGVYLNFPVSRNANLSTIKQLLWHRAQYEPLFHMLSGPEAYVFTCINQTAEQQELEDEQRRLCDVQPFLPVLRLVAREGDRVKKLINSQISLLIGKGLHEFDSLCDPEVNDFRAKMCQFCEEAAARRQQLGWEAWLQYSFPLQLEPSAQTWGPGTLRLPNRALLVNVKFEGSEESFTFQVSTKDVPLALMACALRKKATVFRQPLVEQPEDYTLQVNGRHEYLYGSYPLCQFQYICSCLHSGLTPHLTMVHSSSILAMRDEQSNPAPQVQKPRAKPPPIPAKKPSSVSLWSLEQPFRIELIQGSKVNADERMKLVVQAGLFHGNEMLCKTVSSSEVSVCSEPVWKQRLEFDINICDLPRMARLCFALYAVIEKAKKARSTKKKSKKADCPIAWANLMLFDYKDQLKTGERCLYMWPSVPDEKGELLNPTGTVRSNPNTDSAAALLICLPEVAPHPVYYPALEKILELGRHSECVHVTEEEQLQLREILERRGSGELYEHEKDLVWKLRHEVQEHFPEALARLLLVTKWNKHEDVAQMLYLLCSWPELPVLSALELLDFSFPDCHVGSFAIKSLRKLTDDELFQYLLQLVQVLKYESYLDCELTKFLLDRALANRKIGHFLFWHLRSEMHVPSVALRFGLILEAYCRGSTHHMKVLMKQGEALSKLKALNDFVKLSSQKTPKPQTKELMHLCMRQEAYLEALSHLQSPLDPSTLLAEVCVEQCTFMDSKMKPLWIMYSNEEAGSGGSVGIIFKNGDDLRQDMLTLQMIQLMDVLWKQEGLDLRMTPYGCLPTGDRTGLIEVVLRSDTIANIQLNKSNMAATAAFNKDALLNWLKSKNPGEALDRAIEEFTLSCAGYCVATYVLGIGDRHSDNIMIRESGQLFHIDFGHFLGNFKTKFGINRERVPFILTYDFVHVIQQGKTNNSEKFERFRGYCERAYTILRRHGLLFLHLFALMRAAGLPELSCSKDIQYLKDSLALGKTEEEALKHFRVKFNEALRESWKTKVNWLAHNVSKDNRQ

[2] = target: T1, Phosphatidylinositol 4,5-bisphosphate 3-kinase catalytic subunit delta isoform; assay: Inhibition of PI3Kdelta (unknown origin) assessed as formation of PIP3 by competitive fluorescence polarization assay; details: read-out: Ki(app)
[3] = Genotoxicity in human lymphocytes assessed as chromosome aberration at […] relative to control; format: toxicity, cell-based; details: lymphocyte
[4] = AUC in dog at 10 mg/kg, po; format: ADME, organism-based, Canis lupus familiaris; set-up: dose 10 mg/kg, route oral; details: plasma
[5] = AUC in rat at 5 mg/kg, po; format: ADME, organism-based; set-up: dose 5 mg/kg, route oral; details: plasma
[6] = AUC in dog at 2 mg/kg, po; format: ADME, organism-based, Canis lupus familiaris; set-up: dose 2 mg/kg, route oral; details: plasma
[7] = Cmax in dog at 2 mg/kg, po; format: ADME, organism-based, Canis lupus familiaris; set-up: dose 2 mg/kg, route oral; details: in vivo
[8] = Cmax in dog at 10 mg/kg, po; format: ADME, organism-based, Canis lupus familiaris; set-up: dose 10 mg/kg, route oral; details: in vivo
[9] = Oral bioavailability in dog at 10 mg/kg; format: ADME, organism-based, Canis lupus familiaris; details: in vivo
[10] = Cmax in rat at 5 mg/kg, po; format: ADME, organism-based; set-up: dose 5 mg/kg, route oral; details: in vivo
[11] = Oral bioavailability in rat at 5 mg/kg; format: ADME, organism-based; details: in vivo
[12] = Oral bioavailability in dog at 2 mg/kg; format: ADME, organism-based, Canis lupus familiaris; details: in vivo
[13] = Half life in rat at 1 mg/kg, iv; format: ADME, organism-based; set-up: dose 1 mg/kg, route intravenous; details: in vivo
[14] = Half life in dog at 1 mg/kg, iv; format: ADME, organism-based, Canis lupus familiaris; set-up: dose 1 mg/kg, route intravenous; details: in vivo
[15] = Volume of distribution at steady state in dog at 1 mg/kg, iv; format: ADME, organism-based, Canis lupus familiaris; set-up: dose 1 mg/kg, route intravenous; details: in vivo, read-out: Vdss
[16] = Volume of distribution at steady state in rat at 1 mg/kg, iv; format: ADME, organism-based; set-up: dose 1 mg/kg, route intravenous; details: in vivo, read-out: Vdss
[17] = Clearance in rat at 1 mg/kg, iv; format: ADME, organism-based; set-up: dose 1 mg/kg, route intravenous; details: in vivo
[18] = Clearance in dog at 1 mg/kg, iv; format: ADME, organism-based, Canis lupus familiaris; set-up: dose 1 mg/kg, route intravenous; details: in vivo
[19] = Plasma protein binding in dog; format: ADME, cell-free, Canis lupus familiaris; details: read-out: PPB (converted)
[20] = Plasma protein binding in rat; format: ADME, cell-free; details: read-out: PPB (converted)
[21] = target: Phosphatidylinositol 4-kinase beta (Homo sapiens) (UniProt Q9UBF8); assay: Inhibition of PI4Kb (unknown origin) at 1 uM
Phosphatidylinositol 4-kinase beta (Homo sapiens), sequence (Q9UBF8 2-816 limits assumed): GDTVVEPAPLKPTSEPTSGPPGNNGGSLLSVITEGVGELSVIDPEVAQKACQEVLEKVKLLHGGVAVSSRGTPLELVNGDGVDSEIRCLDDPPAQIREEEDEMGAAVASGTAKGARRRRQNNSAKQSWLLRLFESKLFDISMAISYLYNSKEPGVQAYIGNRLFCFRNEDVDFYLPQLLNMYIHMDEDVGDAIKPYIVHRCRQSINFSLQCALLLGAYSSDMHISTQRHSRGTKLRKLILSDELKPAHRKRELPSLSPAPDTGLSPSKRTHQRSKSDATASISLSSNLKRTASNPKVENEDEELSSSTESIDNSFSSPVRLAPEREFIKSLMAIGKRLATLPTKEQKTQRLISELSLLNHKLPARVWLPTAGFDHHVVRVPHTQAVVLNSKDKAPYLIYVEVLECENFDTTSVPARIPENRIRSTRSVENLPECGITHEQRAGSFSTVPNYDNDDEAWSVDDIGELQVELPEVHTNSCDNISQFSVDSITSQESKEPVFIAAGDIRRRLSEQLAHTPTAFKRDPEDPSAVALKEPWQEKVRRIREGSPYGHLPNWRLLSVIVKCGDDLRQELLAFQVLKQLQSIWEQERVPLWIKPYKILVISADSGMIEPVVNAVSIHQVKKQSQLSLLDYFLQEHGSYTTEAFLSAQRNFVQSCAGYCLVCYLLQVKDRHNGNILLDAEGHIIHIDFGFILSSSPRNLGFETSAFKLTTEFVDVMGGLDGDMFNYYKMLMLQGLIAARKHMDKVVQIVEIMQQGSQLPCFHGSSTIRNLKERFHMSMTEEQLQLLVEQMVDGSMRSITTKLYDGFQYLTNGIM

[22] = target: Serine/threonine-protein kinase B-raf (Homo sapiens) (UniProt P15056); assay: Inhibition of B-Raf (unknown origin) at 1 uM
Serine/threonine-protein kinase B-raf (Homo sapiens), sequence (P15056 whole entry): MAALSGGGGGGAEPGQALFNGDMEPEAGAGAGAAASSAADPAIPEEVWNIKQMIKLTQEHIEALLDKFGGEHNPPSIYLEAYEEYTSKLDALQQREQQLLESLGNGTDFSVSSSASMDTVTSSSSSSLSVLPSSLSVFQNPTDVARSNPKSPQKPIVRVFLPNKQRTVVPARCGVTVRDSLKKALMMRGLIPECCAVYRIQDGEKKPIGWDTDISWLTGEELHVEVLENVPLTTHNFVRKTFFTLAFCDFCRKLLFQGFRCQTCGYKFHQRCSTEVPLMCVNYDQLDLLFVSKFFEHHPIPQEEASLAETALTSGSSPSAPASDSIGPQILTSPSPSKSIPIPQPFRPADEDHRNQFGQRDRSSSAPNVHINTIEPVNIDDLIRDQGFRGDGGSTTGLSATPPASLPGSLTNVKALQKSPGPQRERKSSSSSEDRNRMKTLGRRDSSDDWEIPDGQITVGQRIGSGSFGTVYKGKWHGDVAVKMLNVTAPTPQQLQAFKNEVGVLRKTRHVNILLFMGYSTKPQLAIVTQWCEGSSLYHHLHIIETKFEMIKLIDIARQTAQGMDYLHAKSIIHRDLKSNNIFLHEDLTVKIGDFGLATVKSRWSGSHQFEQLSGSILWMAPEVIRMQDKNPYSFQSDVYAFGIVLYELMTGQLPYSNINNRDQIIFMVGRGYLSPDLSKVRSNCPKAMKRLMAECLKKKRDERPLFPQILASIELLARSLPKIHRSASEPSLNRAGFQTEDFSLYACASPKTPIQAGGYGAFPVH

[23] = Genotoxicity in human lymphocytes assessed as mitotic index at […] (reference value: 11.1); format: toxicity, cell-based; details: lymphocyte
[24] = Genotoxicity in human lymphocytes assessed as chromosome aberration; format: toxicity, cell-based; details: lymphocyte
[25] = target: Phosphatidylinositol 4-phosphate 3-kinase C2 domain-containing subunit beta (Homo sapiens) (UniProt O00750); assay: Inhibition of PI3KC2b (unknown origin) at 10 uM
Phosphatidylinositol 4-phosphate 3-kinase C2 domain-containing subunit beta (Homo sapiens), sequence (O00750 whole entry, the tested form may be a part): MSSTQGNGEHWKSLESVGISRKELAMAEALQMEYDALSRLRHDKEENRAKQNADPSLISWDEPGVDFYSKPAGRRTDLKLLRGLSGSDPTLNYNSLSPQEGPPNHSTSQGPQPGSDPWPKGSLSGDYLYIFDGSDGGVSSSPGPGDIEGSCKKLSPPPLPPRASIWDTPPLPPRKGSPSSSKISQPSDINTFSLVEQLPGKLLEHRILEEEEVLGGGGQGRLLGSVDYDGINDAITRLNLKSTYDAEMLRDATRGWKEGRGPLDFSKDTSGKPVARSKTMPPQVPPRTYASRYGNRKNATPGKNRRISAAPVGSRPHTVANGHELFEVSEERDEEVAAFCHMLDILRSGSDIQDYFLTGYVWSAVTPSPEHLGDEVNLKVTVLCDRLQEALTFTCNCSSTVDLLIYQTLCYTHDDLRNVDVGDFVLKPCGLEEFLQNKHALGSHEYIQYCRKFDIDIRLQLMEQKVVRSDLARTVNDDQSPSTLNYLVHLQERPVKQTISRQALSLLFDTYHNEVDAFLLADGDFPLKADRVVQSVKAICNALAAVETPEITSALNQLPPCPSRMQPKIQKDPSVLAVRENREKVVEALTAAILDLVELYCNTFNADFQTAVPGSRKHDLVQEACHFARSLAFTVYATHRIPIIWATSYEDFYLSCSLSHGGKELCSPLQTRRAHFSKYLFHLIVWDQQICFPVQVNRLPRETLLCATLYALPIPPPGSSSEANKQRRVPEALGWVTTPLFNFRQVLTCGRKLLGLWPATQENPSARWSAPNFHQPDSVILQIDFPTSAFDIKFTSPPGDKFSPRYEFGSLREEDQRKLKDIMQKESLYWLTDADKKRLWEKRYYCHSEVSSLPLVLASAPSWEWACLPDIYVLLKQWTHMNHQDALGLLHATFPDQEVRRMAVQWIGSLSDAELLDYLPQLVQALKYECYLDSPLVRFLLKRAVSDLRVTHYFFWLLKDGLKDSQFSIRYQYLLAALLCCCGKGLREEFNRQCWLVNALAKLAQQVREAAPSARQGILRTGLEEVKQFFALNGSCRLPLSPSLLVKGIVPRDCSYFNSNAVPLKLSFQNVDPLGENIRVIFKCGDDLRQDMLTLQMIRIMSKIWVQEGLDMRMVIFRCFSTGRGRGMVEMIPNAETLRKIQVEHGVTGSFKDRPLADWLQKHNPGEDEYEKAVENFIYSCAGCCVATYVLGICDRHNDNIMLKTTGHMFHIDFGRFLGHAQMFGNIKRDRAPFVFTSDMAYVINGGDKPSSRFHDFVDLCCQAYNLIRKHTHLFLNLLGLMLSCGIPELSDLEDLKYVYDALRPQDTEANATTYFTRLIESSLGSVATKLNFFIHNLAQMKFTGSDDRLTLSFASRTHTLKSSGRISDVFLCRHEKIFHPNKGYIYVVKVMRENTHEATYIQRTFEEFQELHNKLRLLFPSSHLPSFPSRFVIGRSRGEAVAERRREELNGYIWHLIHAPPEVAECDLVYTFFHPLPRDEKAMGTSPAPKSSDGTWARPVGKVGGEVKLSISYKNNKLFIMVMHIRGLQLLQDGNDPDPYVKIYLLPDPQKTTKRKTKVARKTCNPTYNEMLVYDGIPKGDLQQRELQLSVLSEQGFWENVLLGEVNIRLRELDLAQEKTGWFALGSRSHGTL

[26] = target: Maternal embryonic leucine zipper kinase (Homo sapiens) (UniProt Q14680); assay: Inhibition of MELK (unknown origin) at 10 uM
Maternal embryonic leucine zipper kinase (Homo sapiens), sequence (Q14680 whole entry, looked up): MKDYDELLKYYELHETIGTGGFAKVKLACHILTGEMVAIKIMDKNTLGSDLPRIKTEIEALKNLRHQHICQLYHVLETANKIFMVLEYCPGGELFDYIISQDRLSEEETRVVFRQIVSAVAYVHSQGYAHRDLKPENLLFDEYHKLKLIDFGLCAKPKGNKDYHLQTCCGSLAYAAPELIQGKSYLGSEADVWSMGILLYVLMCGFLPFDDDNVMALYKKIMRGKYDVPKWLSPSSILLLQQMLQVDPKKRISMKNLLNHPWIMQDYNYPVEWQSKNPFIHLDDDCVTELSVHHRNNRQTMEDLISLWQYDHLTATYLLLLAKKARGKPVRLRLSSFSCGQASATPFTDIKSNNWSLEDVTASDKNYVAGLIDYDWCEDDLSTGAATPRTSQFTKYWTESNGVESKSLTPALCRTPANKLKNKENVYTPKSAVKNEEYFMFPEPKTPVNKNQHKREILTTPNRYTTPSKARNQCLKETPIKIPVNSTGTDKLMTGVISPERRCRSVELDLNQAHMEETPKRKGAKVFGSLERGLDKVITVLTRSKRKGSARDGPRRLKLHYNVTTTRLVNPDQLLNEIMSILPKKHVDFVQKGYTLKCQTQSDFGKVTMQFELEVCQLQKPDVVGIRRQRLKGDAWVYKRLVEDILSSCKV

[27] = tested on: Serine/threonine-protein kinase B-raf (Homo sapiens), P15056 [V600E]; assay: Inhibition of B-Raf V599E mutant (unknown origin) at 10 uM
Serine/threonine-protein kinase B-raf (Homo sapiens), P15056 [V600E], sequence (P15056 whole entry V600E): as the sequence (P15056 whole entry) above, with V600E counted along it

[28] = Kinetic solubility of the compound; format: physicochemical; details: read-out: Kinetic_solubility
[29] = target: Phosphatidylinositol 4,5-bisphosphate 3-kinase catalytic subunit alpha isoform (Homo sapiens, UniProt P42336); assay: Inhibition of PI3Kalpha (unknown origin) assessed as formation of PIP3 by competitive fluorescence polarization assay; details: read-out: Ki(app)
Phosphatidylinositol 4,5-bisphosphate 3-kinase catalytic subunit alpha isoform, sequence (P42336 whole entry, canonical isoform): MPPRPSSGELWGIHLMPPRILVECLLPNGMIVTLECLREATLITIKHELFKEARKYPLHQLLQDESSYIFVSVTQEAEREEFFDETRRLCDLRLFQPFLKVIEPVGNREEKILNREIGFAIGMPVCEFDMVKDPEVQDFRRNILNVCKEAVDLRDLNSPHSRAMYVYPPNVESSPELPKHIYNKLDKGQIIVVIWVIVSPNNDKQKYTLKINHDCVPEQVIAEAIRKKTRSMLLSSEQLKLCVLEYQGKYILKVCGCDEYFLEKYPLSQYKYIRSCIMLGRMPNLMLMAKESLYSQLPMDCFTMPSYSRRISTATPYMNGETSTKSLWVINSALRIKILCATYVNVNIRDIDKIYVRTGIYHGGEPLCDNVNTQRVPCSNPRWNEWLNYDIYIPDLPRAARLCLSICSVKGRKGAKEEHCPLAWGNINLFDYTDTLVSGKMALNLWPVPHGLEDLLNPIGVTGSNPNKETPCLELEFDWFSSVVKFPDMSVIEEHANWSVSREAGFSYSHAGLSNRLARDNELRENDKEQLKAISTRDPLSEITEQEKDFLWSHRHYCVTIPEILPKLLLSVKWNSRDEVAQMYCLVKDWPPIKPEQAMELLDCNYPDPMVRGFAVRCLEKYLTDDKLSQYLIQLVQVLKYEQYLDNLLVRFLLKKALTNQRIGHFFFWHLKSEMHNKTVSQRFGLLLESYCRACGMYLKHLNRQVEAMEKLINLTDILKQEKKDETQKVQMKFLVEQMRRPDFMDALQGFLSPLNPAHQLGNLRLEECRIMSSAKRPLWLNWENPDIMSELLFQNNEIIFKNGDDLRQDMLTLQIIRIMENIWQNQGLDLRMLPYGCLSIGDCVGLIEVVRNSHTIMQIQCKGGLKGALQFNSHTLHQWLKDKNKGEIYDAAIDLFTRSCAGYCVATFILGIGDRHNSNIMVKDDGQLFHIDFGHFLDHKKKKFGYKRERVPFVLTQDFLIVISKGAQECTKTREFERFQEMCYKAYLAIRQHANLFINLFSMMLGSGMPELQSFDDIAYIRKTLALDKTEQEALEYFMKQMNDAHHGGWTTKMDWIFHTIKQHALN

Compound: CNc1nc2ccccc2n1-c1nc(N2CCOCC2)c2nc(CN3CCC(C(C)(C)O)CC3)n(C)c2n1
Activity (CHO-K1): Toxic

Compound: CCc1nc2ccccc2n1-c1nc(N2CCOCC2)c2nc(N(C)C3CN(C4CCS(=O)(=O)CC4)C3)n(C)c2n1
IC50 [1]: 1.79 nM | Ki [2]: 0.59 nM

Compound: CC(C)c1nc2ccccc2n1-c1nc(N2CCOCC2)c2nc(OC3CN(C4CCS(=O)(=O)CC4)C3)n(C)c2n1
Activity [3]: 2% | AUC [4]: 128 µM·h | AUC [5]: 7.23 µM·h | AUC [6]: 21.1 µM·h | Cmax [7]: 1740 nM | Cmax [8]: 8810 nM | bioavailability [9]: 100% | Cmax [10]: 1180 nM | bioavailability [11]: 96.2% | bioavailability [12]: 82.6% | half-life [13]: 2.59 h | half-life [14]: 11.6 h | Vd [15]: 2.2 L/kg | Vd [16]: 3.6 L/kg | clearance [17]: 19.4 mL/min/kg | clearance [18]: 2.3 mL/min/kg | fraction unbound [19]: 0.2 | fraction unbound [20]: 0.183 | inhibition [21]: 71% | inhibition [22]: 61% | IC50 [1]: 4.38 nM | Ki [2]: 0.47 nM | Activity [23]: 6.8%

Compound: CCc1nc2ccccc2n1-c1nc(N2CCOCC2)c2nc(CN3CCC(C(C)(C)O)CC3)n(C)c2n1
Activity [24]: Toxic | Activity (CHO-K1): Toxic

Compound: CC(C)c1nc2ccccc2n1-c1nc(N2CCOCC2)c2nc(CN3CCC(C(C)(C)O)CC3)n(C)c2n1
inhibition [25]: 72% | inhibition [26]: 63% | inhibition [27]: 53% | solubility kinetic [28]: 32 µM (≈ 17 µg/mL) | Activity [24]: Toxic | Activity (CHO-K1): Non-toxic

Compound: Cn1c(CN2CCC(C(C)(C)O)CC2)nc2c(N3CCOCC3)nc(-c3cccc4[nH]ncc34)nc21
Ki [2]: 2.3 nM

Compound: CCc1nc2ccccc2n1-c1nc(N2CCOCC2)c2sc(CN3CCC(C(C)(C)O)CC3)cc2n1
Activity [24]: Non-toxic | Activity (CHO-K1): Non-toxic

Compound: Cc1nc2ccccc2n1-c1nc(N2CCOCC2)c2nc(CN3CCC(C(C)(C)O)CC3)n(C)c2n1
Activity [24]: Toxic | Activity (CHO-K1): Toxic

Compound: CCc1nc2ccccc2n1-c1nc(N2CCOCC2)c2sc(C(=O)N3CCN(C(C)(C)C(N)=O)CC3)c(C)c2n1
Ki [29]: 157 nM | Ki [2]: 12.7 nM

Compound: Cn1c(CN2CCC(C(C)(C)O)CC2)nc2c(N3CCOCC3)nc(-n3c(C4CC4)nc4ccccc43)nc21
Activity [24]: Toxic | Activity (CHO-K1): Non-toxic

Further lines, with some results ahead:

IC50 [1]: 80.2 nM | Ki [2]: 0.9 nM
Compound: CCc1nc2ccccc2n1-c1nc(N2CCOCC2)c2nc(NC3CN(C4CCS(=O)(=O)CC4)C3)n(C)c2n1

Ki [2]: 0.88 nM
Compound: CCc1nc2ccccc2n1-c1nc(N2CCOCC2)c2nc(NC3CN(C(=O)C(C)C)C3)n(C)c2n1

Ki [2]: 1.1 nM
Compound: CC(C)(O)C1CCN(Cc2cc3nc(-c4cccc5[nH]ncc45)nc(N4CCOCC4)c3s2)CC1
Activity [24]: Non-toxic | Activity (CHO-K1): Non-toxic

clearance [17]: 63 mL/min/kg | IC50 [1]: 4.02 nM | Ki [2]: 0.23 nM
Compound: CCc1nc2ccccc2n1-c1nc(N2CCOCC2)c2nc(CC3CN(C4CCS(=O)(=O)CC4)C3)n(C)c2n1

IC50 [1]: 52.8 nM | Ki [2]: 3.1 nM
Compound: CCc1nc2ccccc2n1-c1nc(N2CCOCC2)c2nc(C(=O)N3CCC(C(C)(C)O)CC3)n(C)c2n1

IC50 [1]: 9.96 nM | Ki [2]: 0.36 nM
Compound: CCc1nc2ccccc2n1-c1nc(N2CCOCC2)c2nc(CC3CN(C(=O)C(C)C)C3)n(C)c2n1

Ki [29]: 236 nM | Ki [2]: 0.8 nM
Compound: CCc1nc2ccccc2n1-c1nc(N2CCOCC2)c2nc(C(=O)N3CCN(C(C)(C)C(N)=O)CC3)n(C)c2n1
